Read-outs that look alike come from different tables or passages of the source.
How the values were obtained:
[1] = system: peripheral blood mononuclear cells from HIV-1 seronegative individuals; conditions: for IFN-γ spots/10^6 PBMC, Average (AV): average of 8 seronegative individuals; for IFN-γ spots/10^6 PBMC, Average (AV) / IFN-γ spots/10^6 PBMC: peptide 5 μM; for IFN-γ spots/10^6 PBMC, AV + 3SD: average plus 3 standard deviations, 8 seronegative individuals
Procedure: (§1) Step d) is achieved by synthesizing the peptides representing the epitopes of the present invention, followed by ELISPOT assay to detect IFN-γ-producing cells. For the purposes of the present invention, the positivity cutoff value used is ≧30 SFC IFN-γ/10^6 PBMC, calculated based on the levels of responses of HIV-1 seronegative patients
(§2) Synthetic peptide stocks were diluted to 25 mg/mL in dimethylsulphoxide, followed by ELISPOT assays for detection of IFN-γ-producing cells in response to the epitopes using peripheral blood mononuclear cells (PBMC) in 34 HIV-1+ patients of several clinical groups, long-term nonprogressors (LTNP), reconsituted, partial controllers, and progressors. Each epitope was tested in a concentration of 5 μM. The cryopreserved cells were maintained in culture for 16 hours, placed on plates in the presence of the epitopes, incubated for a further 18 hours, washed and ELISPOT plates were developed for the identification of spot-forming cells/Interferon-γ-producing cells (IFN-γ SFC), which were then counted in an automated counter (Zeiss KS ELISpot/Axioplan 2).

[2] = system: peripheral blood mononuclear cells (PBMC) in 34 HIV-1+ patients; conditions: 5 μM, positive ≧30 SFC IFN-γ/10^6 PBMC
Procedure: as §1, §2

Row | Sequence | IFN-γ spots/10^6 PBMC, Average (AV) [1] | IFN-γ spots/10^6 PBMC, AV + 3SD [1] | IFN-γ spots/10^6 PBMC ([1]; seronegative individual C#01) | IFN-γ spots/10^6 PBMC ([1]; seronegative individual C#02) | IFN-γ spots/10^6 PBMC ([1]; seronegative individual C#03) | IFN-γ spots/10^6 PBMC ([1]; seronegative individual C#04) | IFN-γ spots/10^6 PBMC ([1]; seronegative individual C#05) | IFN-γ spots/10^6 PBMC ([1]; seronegative individual C#06) | IFN-γ spots/10^6 PBMC ([1]; seronegative individual C#07) | IFN-γ spots/10^6 PBMC ([1]; seronegative individual C#08) | percentage of HIV-1+ patients recognizing the individual peptide [2]
1 | QQLLFIHFRIGCRHSRIG [vpr 3] | 1.9 spots/10^6 PBMC | 12.3 spots/10^6 PBMC | 0 spots/10^6 PBMC | 8 spots/10^6 PBMC | 7 spots/10^6 PBMC | 0 spots/10^6 PBMC | 0 spots/10^6 PBMC | 0 spots/10^6 PBMC | 0 spots/10^6 PBMC | 0 spots/10^6 PBMC | –
2 | ELLKTVRLIKFLYQSNP [rev 1] | 3 spots/10^6 PBMC | 12.9 spots/10^6 PBMC | 5 spots/10^6 PBMC | 7 spots/10^6 PBMC | 5 spots/10^6 PBMC | 7 spots/10^6 PBMC | 0 spots/10^6 PBMC | 0 spots/10^6 PBMC | 0 spots/10^6 PBMC | 0 spots/10^6 PBMC | –
3 | SPEVIPMFSALSE [gag 2] | 0.9 spots/10^6 PBMC | 6.3 spots/10^6 PBMC | 0 spots/10^6 PBMC | 2 spots/10^6 PBMC | 0 spots/10^6 PBMC | 0 spots/10^6 PBMC | 0 spots/10^6 PBMC | 0 spots/10^6 PBMC | 0 spots/10^6 PBMC | 5 spots/10^6 PBMC | –
4 | DKELYPLASLRSLFG [gag 4] | 3.7 spots/10^6 PBMC | 17.4 spots/10^6 PBMC | 0 spots/10^6 PBMC | 0 spots/10^6 PBMC | 5 spots/10^6 PBMC | 12 spots/10^6 PBMC | 8 spots/10^6 PBMC | 0 spots/10^6 PBMC | 0 spots/10^6 PBMC | 5 spots/10^6 PBMC | –
5 | NTSYRLISCNTSVI [env 4] | 5.2 spots/10^6 PBMC | 24.6 spots/10^6 PBMC | 0 spots/10^6 PBMC | 7 spots/10^6 PBMC | 15 spots/10^6 PBMC | 2 spots/10^6 PBMC | 3 spots/10^6 PBMC | 0 spots/10^6 PBMC | 0 spots/10^6 PBMC | 15 spots/10^6 PBMC | –
6 | EELRSLYNTVATLYCVH [gag 1] | 1.7 spots/10^6 PBMC | 10.0 spots/10^6 PBMC | 0 spots/10^6 PBMC | 7 spots/10^6 PBMC | 0 spots/10^6 PBMC | 2 spots/10^6 PBMC | 0 spots/10^6 PBMC | 0 spots/10^6 PBMC | 0 spots/10^6 PBMC | 5 spots/10^6 PBMC | –
7 | QRPLVTIKIGGQLKE [pol 1] | 5.1 spots/10^6 PBMC | 26.9 spots/10^6 PBMC | 0 spots/10^6 PBMC | 0 spots/10^6 PBMC | 20 spots/10^6 PBMC | 12 spots/10^6 PBMC | 3 spots/10^6 PBMC | 0 spots/10^6 PBMC | 1 spots/10^6 PBMC | 5 spots/10^6 PBMC | 44%
8 | VLAIVALVVATIIAI [vpu 1] | 3.7 spots/10^6 PBMC | 16.2 spots/10^6 PBMC | 0 spots/10^6 PBMC | 0 spots/10^6 PBMC | 7 spots/10^6 PBMC | 7 spots/10^6 PBMC | 0 spots/10^6 PBMC | 0 spots/10^6 PBMC | 6 spots/10^6 PBMC | 10 spots/10^6 PBMC | –
